Results: patent US8921362B2, “6,7-dialkoxy quinazoline derivatives and methods of treating drug resistant and other tumors” (Natco Pharma Limited, priority 2008, dated 2014)

Experiments:
Assay in all cases: KinomeScan
Type in all cases: binding
Conditions in all cases: read-out: % Ctrl @ 10000 nM
MKNK1 = biological target: T1, MKNK1 (Homo sapiens, UniProt Q9BUB5)
T1 construct: host or cells: T7 phage grown in E. coli host derived from BL21
Outline: (§1)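 qPCR titer; phage-tagged kinase vs bead ligand; compound diluted from 40× DMSO stock; 2.5% DMSO control.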

ULK1 = biological target: T2, ULK1 (Homo sapiens, UniProt O75385)
T2 construct: host or cells: E. coli host derived from BL21, T7 phage
Outline: as §1

PFTAIRE2 = biological target: T3, PFTAIRE2 (Homo sapiens, UniProt Q96Q40)
T3 construct: host or cells: E. coli host derived from BL21, infected with T7 phage
Outline: as §1

NDR2 = biological target: T4, NDR2 (Homo sapiens, UniProt Q9Y2H1)
T4 construct: host or cells: T7 phage grown in E. coli host derived from BL21
Outline: as §1

FYN = biological target: T5, FYN (Homo sapiens, UniProt P06241)
T5 construct: host or cells: T7 phage in E. coli host derived from BL21
Outline: as §1

YANK2 = biological target: T6, YANK2 (Homo sapiens, UniProt Q9NY57)
T6 construct: host or cells: E. coli host derived from BL21, T7 phage
Outline: as §1

SRPK2 = biological target: T7, SRPK2 (Homo sapiens, UniProt P78362)
T7 construct: host or cells: T7 phage grown in E. coli (BL21-derived)
Outline: as §1

LOK = biological target: T8, LOK (Homo sapiens, UniProt O94804)
T8 construct: host or cells: E. coli host derived from the BL21 strain, infected with T7 phage
Outline: as §1

ROCK2 = biological target: T9, ROCK2 (Homo sapiens, UniProt O75116)
T9 construct: host or cells: E. coli host derived from BL21, T7 phage display
Outline: as §1

PKAC-alpha = biological target: T10, PKAC-alpha (Homo sapiens, UniProt P17612)
T10 construct: host or cells: T7 phage in E. coli host derived from BL21
Outline: as §1

INSR = biological target: T11, INSR (Homo sapiens, UniProt P06213)
T11 construct: host or cells: T7 phage grown in E. coli host derived from BL21
Outline: as §1

SRPK1 = biological target: T12, SRPK1 (Homo sapiens, UniProt Q96SB4)
T12 construct: host or cells: T7 phage grown in E. coli (BL21-derived)
Outline: as §1

ACVR1B = biological target: T13, ACVR1B (Homo sapiens, UniProt P36896)
T13 construct: host or cells: E. coli (BL21-derived), T7 phage lysate
Outline: as §1

ITK = biological target: T14, ITK (Homo sapiens, UniProt Q08881)
T14 construct: host or cells: T7 phage grown in E. coli host derived from BL21
Outline: as §1

MERTK = biological target: T15, MERTK (Homo sapiens, UniProt Q12866)
T15 construct: host or cells: E. coli host derived from the BL21 strain, infected with T7 phage
Outline: as §1

INSRR = biological target: T16, INSRR (Homo sapiens, UniProt P14616)
T16 construct: host or cells: T7 phage grown in E. coli host derived from BL21
Outline: as §1

CDK11 = biological target: T17, CDK11 (Homo sapiens, UniProt Q9BWU1)
T17 construct: host or cells: T7 phage in E. coli host derived from BL21
Outline: as §1

ABL1 = biological target: T18, ABL1 (Homo sapiens, UniProt P00519)
T18 construct: host or cells: E. coli (BL21-derived), T7 phage lysate
Outline: as §1

PFTK1 = biological target: T19, PFTK1 (Homo sapiens, UniProt O94921)
T19 construct: host or cells: E. coli host derived from BL21, infected with T7 phage
Outline: as §1

GSK3A = biological target: T20, GSK3A (Homo sapiens, UniProt P49840)
T20 construct: host or cells: T7 phage in E. coli host derived from BL21
Outline: as §1

SYK = biological target: T21, SYK (Homo sapiens, UniProt P43405)
T21 construct: host or cells: T7 phage grown in E. coli (BL21-derived)
Outline: as §1

SRPK3 = biological target: T22, SRPK3 (Homo sapiens, UniProt Q9UPE1)
T22 construct: host or cells: T7 phage grown in E. coli (BL21-derived)
Outline: as §1

EPHB1 = biological target: T23, EPHB1 (Homo sapiens, UniProt P54762)
T23 construct: purchased Ambit Biosciences Corp; host or cells: T7 phage in E. coli host derived from BL21
Outline: as §1

MAP3K3 = biological target: T24, MAP3K3 (Homo sapiens, UniProt Q99759)
T24 construct: host or cells: E. coli host derived from the BL21 strain, infected with T7 phage
Outline: as §1

YSK1 = biological target: T25, YSK1 (Homo sapiens, UniProt O00506)
T25 construct: host or cells: T7 phage grown in an E. coli host derived from BL21
Outline: as §1

ERK1 = biological target: T26, ERK1 (Homo sapiens, UniProt P27361)
T26 construct: purchased Ambit Biosciences Corp; host or cells: T7 phage in E. coli host derived from BL21
Outline: as §1

TSSK1B = biological target: T27, TSSK1B (Homo sapiens, UniProt Q9BXA7)
T27 construct: host or cells: E. coli host derived from BL21, T7 phage
Outline: as §1

ABL1(F317I) = biological target: T28, ABL1(F317I) (Homo sapiens, UniProt P00519, F317I)
T28 construct: host or cells: E. coli (BL21-derived), T7 phage lysate
Outline: as §1

MEK6 = biological target: T29, MEK6 (Homo sapiens, UniProt P52564)
T29 construct: host or cells: E. coli host derived from the BL21 strain, infected with T7 phage
Outline: as §1

MAP4K2 = biological target: T30, MAP4K2 (Homo sapiens, UniProt Q12851)
T30 construct: host or cells: E. coli host derived from the BL21 strain, infected with T7 phage
Outline: as §1

ALK = biological target: T31, ALK (Homo sapiens, UniProt Q9UM73)
T31 construct: host or cells: E. coli (BL21-derived), T7 phage lysate
Outline: as §1

BMPR1B = biological target: T32, BMPR1B (Homo sapiens, UniProt O00238)
T32 construct: host or cells: E. coli host derived from BL21
Outline: as §1

ABL1(T315I) = biological target: T33, ABL1(T315I) (Homo sapiens, UniProt P00519, T315I)
T33 construct: host or cells: E. coli (BL21-derived), T7 phage lysate
Outline: as §1

ABL1(E255K) = biological target: T34, ABL1(E255K) (Homo sapiens, UniProt P00519, E255K)
T34 construct: host or cells: E. coli (BL21-derived), T7 phage lysate
Outline: as §1

T2 sequence (O75385 whole entry): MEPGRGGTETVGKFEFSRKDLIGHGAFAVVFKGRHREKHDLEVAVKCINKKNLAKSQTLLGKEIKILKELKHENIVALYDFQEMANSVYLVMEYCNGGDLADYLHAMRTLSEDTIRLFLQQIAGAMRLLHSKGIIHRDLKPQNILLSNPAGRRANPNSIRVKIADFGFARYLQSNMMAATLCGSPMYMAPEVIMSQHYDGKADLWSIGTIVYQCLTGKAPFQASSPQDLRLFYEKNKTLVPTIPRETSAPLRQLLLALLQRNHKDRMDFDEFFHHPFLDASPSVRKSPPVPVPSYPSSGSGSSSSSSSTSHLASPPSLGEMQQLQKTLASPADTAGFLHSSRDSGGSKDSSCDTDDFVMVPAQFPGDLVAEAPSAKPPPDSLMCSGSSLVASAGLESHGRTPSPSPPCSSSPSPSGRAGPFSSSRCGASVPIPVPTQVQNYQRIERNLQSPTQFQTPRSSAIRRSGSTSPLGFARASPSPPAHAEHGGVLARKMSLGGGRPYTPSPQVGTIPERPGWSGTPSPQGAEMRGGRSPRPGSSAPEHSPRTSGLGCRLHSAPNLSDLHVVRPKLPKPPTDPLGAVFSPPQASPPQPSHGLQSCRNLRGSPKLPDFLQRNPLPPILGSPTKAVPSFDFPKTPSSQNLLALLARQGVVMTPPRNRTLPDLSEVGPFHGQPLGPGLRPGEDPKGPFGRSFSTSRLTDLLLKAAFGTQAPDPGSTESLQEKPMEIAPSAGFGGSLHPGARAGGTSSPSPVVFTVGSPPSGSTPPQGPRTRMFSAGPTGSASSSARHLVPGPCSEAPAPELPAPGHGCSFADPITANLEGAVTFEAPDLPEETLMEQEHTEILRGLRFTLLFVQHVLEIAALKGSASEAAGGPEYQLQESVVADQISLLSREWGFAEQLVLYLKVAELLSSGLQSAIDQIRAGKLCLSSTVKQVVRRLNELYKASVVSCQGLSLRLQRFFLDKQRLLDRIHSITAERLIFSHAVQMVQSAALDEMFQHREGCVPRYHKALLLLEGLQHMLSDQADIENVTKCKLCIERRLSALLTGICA
T30 sequence (Q12851 whole entry): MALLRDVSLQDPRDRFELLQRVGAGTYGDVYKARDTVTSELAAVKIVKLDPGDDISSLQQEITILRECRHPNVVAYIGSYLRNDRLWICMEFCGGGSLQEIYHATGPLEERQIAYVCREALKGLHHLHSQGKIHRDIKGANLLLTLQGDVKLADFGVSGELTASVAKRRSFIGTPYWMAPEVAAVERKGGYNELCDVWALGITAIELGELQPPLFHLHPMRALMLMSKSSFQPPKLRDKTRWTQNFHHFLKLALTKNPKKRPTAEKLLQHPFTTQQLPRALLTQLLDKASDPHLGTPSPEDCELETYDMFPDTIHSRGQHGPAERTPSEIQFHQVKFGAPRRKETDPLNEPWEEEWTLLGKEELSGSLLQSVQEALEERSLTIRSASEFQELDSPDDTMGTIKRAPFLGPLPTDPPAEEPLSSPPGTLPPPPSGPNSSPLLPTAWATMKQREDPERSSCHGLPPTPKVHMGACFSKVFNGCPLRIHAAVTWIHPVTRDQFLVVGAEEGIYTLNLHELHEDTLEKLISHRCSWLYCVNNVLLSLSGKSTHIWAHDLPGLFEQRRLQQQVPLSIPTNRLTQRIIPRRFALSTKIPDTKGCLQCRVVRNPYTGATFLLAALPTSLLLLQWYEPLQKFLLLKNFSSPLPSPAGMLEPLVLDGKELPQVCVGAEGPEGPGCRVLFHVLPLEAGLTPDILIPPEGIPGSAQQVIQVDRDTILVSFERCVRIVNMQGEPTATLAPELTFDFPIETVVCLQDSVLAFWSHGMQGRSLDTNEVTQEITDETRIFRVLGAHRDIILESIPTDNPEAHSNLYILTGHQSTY
T15 sequence (Q12866 21-999): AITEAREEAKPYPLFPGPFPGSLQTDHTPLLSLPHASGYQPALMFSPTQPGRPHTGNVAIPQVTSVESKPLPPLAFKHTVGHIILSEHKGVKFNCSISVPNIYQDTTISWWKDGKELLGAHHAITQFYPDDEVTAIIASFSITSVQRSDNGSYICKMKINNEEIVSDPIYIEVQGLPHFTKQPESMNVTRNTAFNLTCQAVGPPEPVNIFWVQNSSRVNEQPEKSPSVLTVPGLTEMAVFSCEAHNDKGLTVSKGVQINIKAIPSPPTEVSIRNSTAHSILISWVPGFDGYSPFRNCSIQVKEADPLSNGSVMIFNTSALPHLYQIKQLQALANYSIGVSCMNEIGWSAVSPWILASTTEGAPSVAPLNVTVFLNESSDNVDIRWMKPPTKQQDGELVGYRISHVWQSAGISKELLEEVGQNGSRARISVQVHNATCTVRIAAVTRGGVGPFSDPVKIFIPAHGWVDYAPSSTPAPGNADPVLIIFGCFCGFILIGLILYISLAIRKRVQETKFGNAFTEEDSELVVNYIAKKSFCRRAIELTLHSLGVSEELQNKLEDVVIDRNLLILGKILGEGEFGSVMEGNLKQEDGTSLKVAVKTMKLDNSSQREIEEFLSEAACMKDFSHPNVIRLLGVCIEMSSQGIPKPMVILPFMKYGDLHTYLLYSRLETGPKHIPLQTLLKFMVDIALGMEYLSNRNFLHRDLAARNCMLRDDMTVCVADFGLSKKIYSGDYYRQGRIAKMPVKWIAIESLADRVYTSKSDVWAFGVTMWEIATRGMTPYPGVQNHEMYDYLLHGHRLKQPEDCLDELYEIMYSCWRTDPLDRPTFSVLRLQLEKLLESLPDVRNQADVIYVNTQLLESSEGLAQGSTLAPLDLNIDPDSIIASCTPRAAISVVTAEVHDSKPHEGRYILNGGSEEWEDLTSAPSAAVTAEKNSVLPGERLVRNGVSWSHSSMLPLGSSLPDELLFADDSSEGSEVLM
T23 sequence (P54762 18-984): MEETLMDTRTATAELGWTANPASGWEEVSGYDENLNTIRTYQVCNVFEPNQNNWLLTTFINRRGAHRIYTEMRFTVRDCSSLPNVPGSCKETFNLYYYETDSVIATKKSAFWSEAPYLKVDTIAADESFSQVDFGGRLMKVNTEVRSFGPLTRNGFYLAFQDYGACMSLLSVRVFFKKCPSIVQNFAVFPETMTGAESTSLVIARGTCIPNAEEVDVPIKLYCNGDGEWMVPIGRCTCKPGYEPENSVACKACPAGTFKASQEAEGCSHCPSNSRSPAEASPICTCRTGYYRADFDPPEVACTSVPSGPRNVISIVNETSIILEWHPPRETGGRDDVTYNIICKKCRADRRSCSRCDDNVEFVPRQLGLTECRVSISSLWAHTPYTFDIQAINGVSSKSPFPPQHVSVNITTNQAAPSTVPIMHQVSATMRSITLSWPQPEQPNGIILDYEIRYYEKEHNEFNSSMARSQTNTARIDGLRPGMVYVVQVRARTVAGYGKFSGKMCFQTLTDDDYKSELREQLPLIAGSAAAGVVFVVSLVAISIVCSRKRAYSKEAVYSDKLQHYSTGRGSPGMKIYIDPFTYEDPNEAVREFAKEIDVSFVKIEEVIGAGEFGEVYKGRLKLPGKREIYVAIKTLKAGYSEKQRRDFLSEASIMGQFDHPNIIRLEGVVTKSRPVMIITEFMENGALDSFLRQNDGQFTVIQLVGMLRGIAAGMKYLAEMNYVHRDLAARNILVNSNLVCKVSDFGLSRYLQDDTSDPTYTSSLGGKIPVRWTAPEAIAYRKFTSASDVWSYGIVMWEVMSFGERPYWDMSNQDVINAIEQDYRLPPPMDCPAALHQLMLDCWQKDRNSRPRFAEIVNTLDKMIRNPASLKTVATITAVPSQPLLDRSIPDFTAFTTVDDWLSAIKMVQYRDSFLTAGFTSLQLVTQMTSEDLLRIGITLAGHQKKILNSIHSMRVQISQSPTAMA
T17 sequence (Q9BWU1 whole entry): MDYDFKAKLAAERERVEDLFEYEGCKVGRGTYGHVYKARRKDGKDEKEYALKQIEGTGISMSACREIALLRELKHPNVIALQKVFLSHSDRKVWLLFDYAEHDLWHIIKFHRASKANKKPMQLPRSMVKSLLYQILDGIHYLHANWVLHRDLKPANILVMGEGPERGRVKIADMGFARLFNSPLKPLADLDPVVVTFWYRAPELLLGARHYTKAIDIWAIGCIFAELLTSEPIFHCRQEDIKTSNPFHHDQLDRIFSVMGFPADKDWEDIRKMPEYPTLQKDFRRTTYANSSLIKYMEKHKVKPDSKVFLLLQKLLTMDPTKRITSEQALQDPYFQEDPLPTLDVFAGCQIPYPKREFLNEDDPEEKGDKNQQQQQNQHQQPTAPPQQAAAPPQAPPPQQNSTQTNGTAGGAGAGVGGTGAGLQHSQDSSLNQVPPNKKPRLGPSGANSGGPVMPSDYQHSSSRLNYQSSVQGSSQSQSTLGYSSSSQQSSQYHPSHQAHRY
T26 sequence (P27361 whole entry): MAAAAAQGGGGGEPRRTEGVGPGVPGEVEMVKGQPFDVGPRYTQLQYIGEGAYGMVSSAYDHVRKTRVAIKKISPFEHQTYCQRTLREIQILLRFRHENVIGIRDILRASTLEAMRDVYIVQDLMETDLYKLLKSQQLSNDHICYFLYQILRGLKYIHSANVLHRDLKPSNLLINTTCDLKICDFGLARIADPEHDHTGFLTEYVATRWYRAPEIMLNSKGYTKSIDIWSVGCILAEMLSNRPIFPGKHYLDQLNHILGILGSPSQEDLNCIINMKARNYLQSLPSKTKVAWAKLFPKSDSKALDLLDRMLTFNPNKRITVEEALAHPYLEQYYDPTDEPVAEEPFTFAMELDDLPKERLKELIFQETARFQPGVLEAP
T29 sequence (P52564 whole entry): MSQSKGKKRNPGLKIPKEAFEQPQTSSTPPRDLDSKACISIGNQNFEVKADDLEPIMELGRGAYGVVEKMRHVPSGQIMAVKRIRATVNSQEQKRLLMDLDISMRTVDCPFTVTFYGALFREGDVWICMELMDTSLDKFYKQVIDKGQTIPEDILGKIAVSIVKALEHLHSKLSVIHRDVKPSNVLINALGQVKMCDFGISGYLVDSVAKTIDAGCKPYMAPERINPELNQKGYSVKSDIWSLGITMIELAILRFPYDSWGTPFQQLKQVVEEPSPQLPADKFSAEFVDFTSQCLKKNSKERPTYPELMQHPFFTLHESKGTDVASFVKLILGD

C#Cc1cccc(Nc2ncnc3cc(OC)c(OCCCN4CCOCC4)cc23)c1 [NRC-2694, N-(3-ethynylphenyl)-7-methoxy-6-[3-(4-morpholinyl)propoxy]-4-quinazolinamine]
remaining binding at 10 µM (MKNK1): 1.2%
remaining binding at 10 µM (ULK1): 100%
remaining binding at 10 µM (PFTAIRE2): 71%
remaining binding at 10 µM (NDR2): 74%
remaining binding at 10 µM (FYN): 41%
remaining binding at 10 µM (YANK2): 68%
remaining binding at 10 µM (SRPK2): 73%
remaining binding at 10 µM (LOK): 0%
remaining binding at 10 µM (ROCK2): 38%
remaining binding at 10 µM (PKAC-alpha): 100%
remaining binding at 10 µM (INSR): 90%
remaining binding at 10 µM (SRPK1): 40%
remaining binding at 10 µM (ACVR1B): 63%
remaining binding at 10 µM (ITK): 82%
remaining binding at 10 µM (MERTK): 48%
remaining binding at 10 µM (INSRR): 79%
remaining binding at 10 µM (CDK11): 87%
remaining binding at 10 µM (ABL1): 67%
remaining binding at 10 µM (PFTK1): 71%
remaining binding at 10 µM (GSK3A): 75%
remaining binding at 10 µM (SYK): 56%
remaining binding at 10 µM (SRPK3): 38%
remaining binding at 10 µM (EPHB1): 72%
remaining binding at 10 µM (MAP3K3): 5.9%
remaining binding at 10 µM (YSK1): 69%
remaining binding at 10 µM (ERK1): 98%
remaining binding at 10 µM (TSSK1B): 93%
remaining binding at 10 µM (ABL1(F317I)): 48%
remaining binding at 10 µM (MEK6): 75%
remaining binding at 10 µM (MAP4K2): 48%
remaining binding at 10 µM (ALK): 10%
remaining binding at 10 µM (BMPR1B): 78%
remaining binding at 10 µM (ABL1(T315I)): 35%
remaining binding at 10 µM (ABL1(E255K)): 80%
